In this experiment the test system is MV-4-11 cells. Kind of experiment: Gene expression microarray analysis (Affymetrix PrimeView) and GSEA. Format: cell-based, human. The arrangement: RFU PODN (11730768_x_at) / Fold change /veh PODN (11730768_x_at) / RFU LINC00158 (11744669_a_at) / Fold change /veh LINC00158 (11744669_a_at) / RFU DUSP10 (11751237_a_at) / Fold change /veh DUSP10 (11751237_a_at) / RFU ID3 (11757404_x_at) / Fold change /veh ID3 (11757404_x_at) / RFU PLEKHG5 (11737974_s_at) / Fold change /veh PLEKHG5 (11737974_s_at) / RFU LRRC4B (11730491_at) / Fold change /veh LRRC4B (11730491_at) / RFU GIMAP4 (11747438_a_at) / Fold change /veh GIMAP4 (11747438_a_at) / RFU KRT8 (11758183_x_at) / Fold change /veh KRT8 (11758183_x_at) / RFU CNN1 (11734310_a_at) / Fold change /veh CNN1 (11734310_a_at) / RFU VPS37D (11726825_at) / Fold change /veh VPS37D (11726825_at) / RFU C10orf10 (11716522_x_at) / Fold change /veh C10orf10 (11716522_x_at) / RFU KIR2DL2 /// KIR2DL4 /// KIR2DL5A /// KIR2DL5B /// KIR2DS1 /// KIR2DS2 /// KIR2DS3 /// KIR2DS4 /// KIR3DL3 /// KIR3DL3 /// KIR3DS1 (11738374_at) / Fold change /veh KIR2DL2 /// KIR2DL4 /// KIR2DL5A /// KIR2DL5B /// KIR2DS1 /// KIR2DS2 /// KIR2DS3 /// KIR2DS4 /// KIR3DL3 /// KIR3DL3 /// KIR3DS1 (11738374_at) / RFU C1QL1 (11718748_at) / Fold change /veh C1QL1 (11718748_at) / RFU TMPRSS4 (11747572_a_at) / Fold change /veh TMPRSS4 (11747572_a_at) / RFU HAMP (11756126_x_at) / Fold change /veh HAMP (11756126_x_at) / RFU RNFT2 (11725882_a_at) / Fold change /veh RNFT2 (11725882_a_at) / RFU NR4A2 (11747474_a_at) / Fold change /veh NR4A2 (11747474_a_at) / RFU ABCC12 (11746883_a_at) / Fold change /veh ABCC12 (11746883_a_at) / RFU TMEM136 (11760407_x_at) / Fold change /veh TMEM136 (11760407_x_at) / RFU CLDN22 /// WWC2 (11732394_at) / Fold change /veh CLDN22 /// WWC2 (11732394_at) / RFU HLA-DPB1 (11760878_x_at) / Fold change /veh HLA-DPB1 (11760878_x_at) / RFU SPINT1 (11716480_a_at) / Fold change /veh SPINT1 (11716480_a_at) / RFU GAP43 (11754022_s_at) / Fold change /veh GAP43 (11754022_s_at) / RFU A4GNT (11735810_at) / Fold change /veh A4GNT (11735810_at) / RFU PRB3 (11715151_x_at) / Fold change /veh PRB3 (11715151_x_at) / RFU TUBB4B (11761932_at) / Fold change /veh TUBB4B (11761932_at) / RFU CAPN14 (11732068_a_at) / Fold change /veh CAPN14 (11732068_a_at) / RFU TMCC2 (11721928_a_at) / Fold change /veh TMCC2 (11721928_a_at) / RFU IRGQ (11745062_a_at) / Fold change /veh IRGQ (11745062_a_at) / RFU FAM174B (11720279_a_at) / Fold change /veh FAM174B (11720279_a_at) / RFU TMPRSS4 (11748680_a_at) / Fold change /veh TMPRSS4 (11748680_a_at) / RFU FAM212B (11763350_a_at) / Fold change /veh FAM212B (11763350_a_at) / RFU PLEKHG5 (11743358_a_at) / Fold change /veh PLEKHG5 (11743358_a_at) / RFU ZSCAN30 (11745921_a_at) / Fold change /veh ZSCAN30 (11745921_a_at) / RFU CMKLR1 (11741424_a_at) / Fold change /veh CMKLR1 (11741424_a_at) / RFU LOC101060620 /// MAPK8IP1 (11723275_at) / Fold change /veh LOC101060620 /// MAPK8IP1 (11723275_at) / RFU SPTSSB (11747773_x_at) / Fold change /veh SPTSSB (11747773_x_at) / RFU PRSS12 (11739890_at) / Fold change /veh PRSS12 (11739890_at) / RFU BIN1 (11741810_x_at) / Fold change /veh BIN1 (11741810_x_at) / RFU WNT11 (11732464_a_at) / Fold change /veh WNT11 (11732464_a_at) / RFU C10orf10 (11716521_a_at) / Fold change /veh C10orf10 (11716521_a_at) / RFU C5orf56 (11738089_at) / Fold change /veh C5orf56 (11738089_at) / RFU CYB561 (11721691_x_at) / Fold change /veh CYB561 (11721691_x_at) / RFU ANKRD19P (11752326_a_at) / Fold change /veh ANKRD19P (11752326_a_at) / RFU OR2T12 /// OR2T33 /// OR2T8 (11738714_s_at) / Fold change /veh OR2T12 /// OR2T33 /// OR2T8 (11738714_s_at) / RFU VCAN (11748164_a_at) / Fold change /veh VCAN (11748164_a_at) / RFU JSRP1 (11732532_at) / Fold change /veh JSRP1 (11732532_at) / RFU KRTAP10-11 (11738290_x_at) / Fold change /veh KRTAP10-11 (11738290_x_at) / RFU MYO3A (11730013_a_at) / Fold change /veh MYO3A (11730013_a_at) / RFU EBF3 (11725865_a_at) / Fold change /veh EBF3 (11725865_a_at) / RFU CAMK2N1 (11719241_x_at) / Fold change /veh CAMK2N1 (11719241_x_at) / RFU C5orf56 (11738088_a_at) / Fold change /veh C5orf56 (11738088_a_at) / RFU OLFML3 (11715873_a_at) / Fold change /veh OLFML3 (11715873_a_at) / RFU LOC100653217 /// NTM (11731650_a_at) / Fold change /veh LOC100653217 /// NTM (11731650_a_at) / RFU MAPK11 (11762145_a_at) / Fold change /veh MAPK11 (11762145_a_at) / RFU FIZ1 (11724087_x_at) / Fold change /veh FIZ1 (11724087_x_at) / RFU OASL (11726364_x_at) / Fold change /veh OASL (11726364_x_at) / RFU SOX15 (11748057_x_at) / Fold change /veh SOX15 (11748057_x_at) / RFU CD79A (11719716_a_at) / Fold change /veh CD79A (11719716_a_at) / RFU HIST1H1D (11736915_at) / Fold change /veh HIST1H1D (11736915_at) / RFU CASKIN2 (11723855_a_at) / Fold change /veh CASKIN2 (11723855_a_at) / RFU LOC730098 (11760151_x_at) / Fold change /veh LOC730098 (11760151_x_at) / RFU OR4N2 (11742367_at) / Fold change /veh OR4N2 (11742367_at) / RFU PRRT2 (11749266_a_at) / Fold change /veh PRRT2 (11749266_a_at) / RFU SNX32 (11753110_a_at) / Fold change /veh SNX32 (11753110_a_at) / RFU CDHR5 (11726645_a_at) / Fold change /veh CDHR5 (11726645_a_at) / RFU RCAN1 (11760418_a_at) / Fold change /veh RCAN1 (11760418_a_at) / RFU FAM167A (11723789_a_at) / Fold change /veh FAM167A (11723789_a_at) / RFU FAM26E (11764081_at) / Fold change /veh FAM26E (11764081_at) / RFU ISYNA1 (11749810_s_at) / Fold change /veh ISYNA1 (11749810_s_at) / RFU ACY1 (11761880_at) / Fold change /veh ACY1 (11761880_at) / RFU 11764098_at / Fold change /veh 11764098_at / RFU SAMD14 (11745864_x_at) / Fold change /veh SAMD14 (11745864_x_at) / RFU NPB (11741838_a_at) / Fold change /veh NPB (11741838_a_at) / RFU TMPRSS6 (11731388_a_at) / Fold change /veh TMPRSS6 (11731388_a_at) / RFU KRTAP10-2 (11738614_at) / Fold change /veh KRTAP10-2 (11738614_at) / RFU ARHGAP8 /// PRR5-ARHGAP8 (11727945_x_at) / Fold change /veh ARHGAP8 /// PRR5-ARHGAP8 (11727945_x_at) / RFU KRTAP5-7 /// NADSYN1 (11734609_at) / Fold change /veh KRTAP5-7 /// NADSYN1 (11734609_at) / RFU RASL12 (11751679_a_at) / Fold change /veh RASL12 (11751679_a_at) / RFU CDKN2B (11736163_a_at) / Fold change /veh CDKN2B (11736163_a_at) / RFU PRF1 (11729649_at) / Fold change /veh PRF1 (11729649_at) / RFU, ZNF638 /// ZNF638-IT1 / Fold change vs veh, ZNF638 /// ZNF638-IT1 / RFU, PANK3 / Fold change vs veh, PANK3 / RFU, SH3YL1 / Fold change vs veh, SH3YL1 / RFU, ZEB2 / Fold change vs veh, ZEB2 / RFU, NRIP1 / Fold change vs veh, NRIP1 / RFU, PTTG1IP / Fold change vs veh, PTTG1IP / RFU, CAPN2 / Fold change vs veh, CAPN2 / RFU, MED14 / Fold change vs veh, MED14 / RFU, SNORA58 / Fold change vs veh, SNORA58 / RFU, C1orf63 / Fold change vs veh, C1orf63 / RFU, LRRFIP1 / Fold change vs veh, LRRFIP1 / RFU, NDUFAF7 / Fold change vs veh, NDUFAF7 / RFU, SLC12A2 / Fold change vs veh, SLC12A2 / RFU, IBTK / Fold change vs veh, IBTK / RFU, ESF1 / Fold change vs veh, ESF1 / Fold change vs veh, TMEM50B / RFU, TAOK1 / Fold change vs veh, TAOK1 / RFU, ACBD3 / Fold change vs veh, ACBD3 / RFU, TMA16 / Fold change vs veh, TMA16 / RFU, RWDD3 / Fold change vs veh, RWDD3 / RFU, BCAT1 / Fold change vs veh, BCAT1 / RFU, EDEM3 / Fold change vs veh, EDEM3 / RFU, TMEM33 / Fold change vs veh, TMEM33 / RFU, WDR75 / Fold change vs veh, WDR75 / RFU, AHCTF1 / Fold change vs veh, AHCTF1 / RFU, TFRC / Fold change vs veh, TFRC / RFU, ZDHHC17 / Fold change vs veh, ZDHHC17 / RFU, NOM1 / Fold change vs veh, NOM1 / RFU, ARL8B / Fold change vs veh, ARL8B / RFU, ZBTB11 / Fold change vs veh, ZBTB11 / RFU, TAMM41 / Fold change vs veh, TAMM41 / RFU, KIAA1704 /// LOC100996395 / Fold change vs veh, KIAA1704 /// LOC100996395 / RFU, ING1 / Fold change vs veh, ING1 / RFU, TRMT61B / Fold change vs veh, TRMT61B / RFU, FUBP3 / Fold change vs veh, FUBP3 / RFU, TP53 / Fold change vs veh, TP53 / RFU, TNKS2 / Fold change vs veh, TNKS2 / RFU, ZFP14 / Fold change vs veh, ZFP14 / RFU, ACTR2 / Fold change vs veh, ACTR2 / RFU, PPP3R1 / Fold change vs veh, PPP3R1 / RFU, PIK3R1 / Fold change vs veh, PIK3R1 / RFU, HNRNPA1 / Fold change vs veh, HNRNPA1 / RFU, RNF170 / Fold change vs veh, RNF170 / RFU, ZNF28 / Fold change vs veh, ZNF28 / RFU, RNGTT / Fold change vs veh, RNGTT / RFU, OGT / Fold change vs veh, OGT / RFU, BRD1 / Fold change vs veh, BRD1 / RFU, MARS / Fold change vs veh, MARS / RFU, ZNF655 / Fold change vs veh, ZNF655 / RFU, FAHD1 / Fold change vs veh, FAHD1 / RFU, BDP1 / Fold change vs veh, BDP1 / RFU, LRRCC1 / Fold change vs veh, LRRCC1 / RFU, ARID1A / Fold change vs veh, ARID1A / RFU, ZNF146 / Fold change vs veh, ZNF146 / RFU, ZNF330 / Fold change vs veh, ZNF330 / RFU, GPN3 / Fold change vs veh, GPN3 / RFU, C9orf123 / Fold change vs veh, C9orf123 / RFU, N4BP2L2 / Fold change vs veh, N4BP2L2 / RFU, ARFIP1 / Fold change vs veh, ARFIP1 / RFU, FAM179B / Fold change vs veh, FAM179B / RFU, BCL10 / Fold change vs veh, BCL10 / RFU, UHRF1BP1L / Fold change vs veh, UHRF1BP1L / RFU, BET1 / Fold change vs veh, BET1 / RFU, CNOT2 / Fold change vs veh, CNOT2 / RFU, ZNF268 / Fold change vs veh, ZNF268 / Fold change vs veh, ZNF507 / RFU, DGCR2 / Fold change vs veh, DGCR2 / RFU, WDSUB1 / Fold change vs veh, WDSUB1 / Fold change vs veh, HSP90B1 /// MIR3652 / RFU, ADSS / Fold change vs veh, ADSS / RFU, GK / Fold change vs veh, GK / RFU, ZNF148 / Fold change vs veh, ZNF148 / RFU, TAF9 / Fold change vs veh, TAF9 / RFU, SLC1A5 / Fold change vs veh, SLC1A5 / RFU, SLMO2 / Fold change vs veh, SLMO2 / RFU, ABCC4 / Fold change vs veh, ABCC4 / RFU, LOC101060439 /// RAP1B / Fold change vs veh, LOC101060439 /// RAP1B / RFU, RFX7 / Fold change vs veh, RFX7 / RFU, GTPBP10 / Fold change vs veh, GTPBP10 / RFU, CNEP1R1 / Fold change vs veh, CNEP1R1 / RFU, BIVM-ERCC5 /// ERCC5 / Fold change vs veh, BIVM-ERCC5 /// ERCC5 / RFU, ILF3 / Fold change vs veh, ILF3 / RFU 11762660_at / Fold change /veh 11762660_at / RFU VCAN (11757783_s_at) / Fold change /veh VCAN (11757783_s_at) / RFU DDX43 (11728927_at) / Fold change /veh DDX43 (11728927_at) / RFU KRT8 (11758188_x_at) / Fold change /veh KRT8 (11758188_x_at) / RFU NKD1 (11759106_at) / Fold change /veh NKD1 (11759106_at) / RFU SRD5A1 (11742802_a_at) / Fold change /veh SRD5A1 (11742802_a_at) / RFU TPSAB1 /// TPSB2 (11721975_s_at) / Fold change /veh TPSAB1 /// TPSB2 (11721975_s_at) / RFU GSTM3 (11746129_a_at) / Fold change /veh GSTM3 (11746129_a_at) / RFU IL23R (11737362_x_at) / Fold change /veh IL23R (11737362_x_at) / RFU TMEM51 (11727254_a_at) / Fold change /veh TMEM51 (11727254_a_at) / RFU PIWIL2 (11732686_x_at) / Fold change /veh PIWIL2 (11732686_x_at) / RFU ORM1 (11744905_x_at) / Fold change /veh ORM1 (11744905_x_at) / RFU CCDC152 (11743942_at) / Fold change /veh CCDC152 (11743942_at) / RFU ECM1 (11717891_a_at) / Fold change /veh ECM1 (11717891_a_at) / RFU IL23R (11748794_a_at) / Fold change /veh IL23R (11748794_a_at) / RFU TNFAIP8L3 (11732012_x_at) / Fold change /veh TNFAIP8L3 (11732012_x_at) / RFU MBOAT4 (11741988_at) / Fold change /veh MBOAT4 (11741988_at) / RFU 11764193_at / Fold change /veh 11764193_at / RFU TMEM53 (11763286_at) / Fold change /veh TMEM53 (11763286_at) / RFU MAGEB2 (11727129_at) / Fold change /veh MAGEB2 (11727129_at) / RFU TMEM200A (11744735_a_at) / Fold change /veh TMEM200A (11744735_a_at) / RFU CCDC152 (11751479_a_at) / Fold change /veh CCDC152 (11751479_a_at) / RFU FAM211A (11726209_a_at) / Fold change /veh FAM211A (11726209_a_at) / RFU RGS16 (11746705_a_at) / Fold change /veh RGS16 (11746705_a_at) / RFU VCAN (11755009_s_at) / Fold change /veh VCAN (11755009_s_at) / RFU RHOB (11743442_s_at) / Fold change /veh RHOB (11743442_s_at) / RFU RGS16 (11720943_a_at) / Fold change /veh RGS16 (11720943_a_at) / RFU RGS16 (11720944_at) / Fold change /veh RGS16 (11720944_at) / RFU, VPS4B / Fold change vs veh, VPS4B / RFU, CREB1 / Fold change vs veh, CREB1 / RFU, DNAJC13 / Fold change vs veh, DNAJC13 / RFU, GNAQ / Fold change vs veh, GNAQ / RFU, CDK5R1 / Fold change vs veh, CDK5R1 / RFU, ZRANB3 / Fold change vs veh, ZRANB3 / RFU, CUL4A / Fold change vs veh, CUL4A / RFU, CCNY / Fold change vs veh, CCNY / RFU, UFL1 / Fold change vs veh, UFL1 / RFU, COG3 / Fold change vs veh, COG3 / RFU, DIAPH2 / Fold change vs veh, DIAPH2 / RFU, SKA2 / Fold change vs veh, SKA2 / RFU, AFF3 / Fold change vs veh, AFF3 / RFU, LMF1 / Fold change vs veh, LMF1 / RFU, IPO11 / Fold change vs veh, IPO11 / RFU, DFFB / Fold change vs veh, DFFB / RFU, FOXP1 / Fold change vs veh, FOXP1 / RFU, CARD8 / Fold change vs veh, CARD8 / RFU, STRN3 / Fold change vs veh, STRN3 / RFU, ADK / Fold change vs veh, ADK / RFU, RASSF2 / Fold change vs veh, RASSF2 / RFU, WIPF1 / Fold change vs veh, WIPF1 / RFU, LARP1B / Fold change vs veh, LARP1B / RFU, RASA1 / Fold change vs veh, RASA1 / RFU, RB1 / Fold change vs veh, RB1 / RFU, PPFIA1 / Fold change vs veh, PPFIA1 / RFU, MAT2A / Fold change vs veh, MAT2A / RFU, CCT5 / Fold change vs veh, CCT5 / RFU, WDR92 / Fold change vs veh, WDR92 / RFU, CUX1 / Fold change vs veh, CUX1 / RFU, TTC7A / Fold change vs veh, TTC7A / RFU, TMEM135 / Fold change vs veh, TMEM135 / RFU, DEPTOR / Fold change vs veh, DEPTOR / RFU, CPM / Fold change vs veh, CPM / RFU, DNAJB6 / Fold change vs veh, DNAJB6 / RFU, CACNA2D3 / Fold change vs veh, CACNA2D3 / RFU, DTX4 / Fold change vs veh, DTX4 / RFU, TFCP2 / Fold change vs veh, TFCP2 / RFU, GMCL1 /// GMCL1P1 / Fold change vs veh, GMCL1 /// GMCL1P1 / RFU, AEBP2 / Fold change vs veh, AEBP2 / RFU, SNHG1 /// SNORD22 /// SNORD25 /// SNORD26 /// SNORD27 /// SNORD28 /// SNORD29 /// SNORD31 / Fold change vs veh, SNHG1 /// SNORD22 /// SNORD25 /// SNORD26 /// SNORD27 /// SNORD28 /// SNORD29 /// SNORD31 / Fold change (Aza/veh), C12orf56 (ProbeSet 11735607_a_at) / Fold change (ACY-1035/veh), C12orf56 (ProbeSet 11735607_a_at) / Fold change (Aza/veh), FGFR1OP (ProbeSet 11751329_s_at) / Fold change (ACY-1035/veh), FGFR1OP (ProbeSet 11751329_s_at) / Fold change (Aza/veh), VPS36 (ProbeSet 11739960_a_at) / Fold change (ACY-1035/veh), VPS36 (ProbeSet 11739960_a_at) / RFU SYPL1 (11715823_x_at) / Fold change /veh SYPL1 (11715823_x_at) / RFU IGFBP7 (11715501_s_at) / Fold change /veh IGFBP7 (11715501_s_at) / RFU REEP3 (11722064_at) / Fold change /veh REEP3 (11722064_at) / RFU IGLL1 (11728026_x_at) / Fold change /veh IGLL1 (11728026_x_at): dose or concentration left out as unconfirmed. Particulars: ProbeSet 11759094_a_at; LIST D.

Regarding `Nc1ccc(-c2cccs2)cc1NC(=O)c1ccc2c(c1)cc(C1CC1)n2CCN1CCOCC1` [ACY-1035], the “Fold change vs veh, GNAQ” value came to 0.89.

Values taken from publication PMC5218480 (PLoS ONE, 2017).
